Test system: platelets (arachidonic acid-induced platelet aggregation)
Assay: Arachidonic acid-induced platelet aggregation in platelet-rich plasma
Type: cell-based, New Zealand rabbit
Details: 30 μM; arachidonic acid 100 μM; rabbit platelet-rich plasma
Description: The inhibitory effect of hypoestoxides according to the present invention on platelet aggregation was studied. Platelet-rich plasma from a New Zealand rabbit was used as the source of platelets. Arachidonic acid (100 μM) was used to induce maximal platelet aggregation in vitro. Optical density of aggregation was measured by densitometry.

C=C1C(=O)C[C@H]2C[C@@H]3O[C@@]3(C)CC[C@@H]3O[C@@]3(C)C[C@@H](OC(C)=O)[C@H]1C2(C)C [Hypoestoxide, hypoestoxide]
% Inhibition of arachidonic acid-induced platelet aggregation: 100%

Source: patent US7229979B2, “Hypoestoxides, derivatives and agonists thereof for use as stent-coating agents” (Immune Modulation, Inc., priority 2003, dated 2007)
